Experiment: recombinant UMI read abundance after kanamycin selection (control-corrected) (log10(CPM+1)); higher = more efficient recombination; extreme values may be limits of the assay; sequences stand for … in AGTGCAGAGAAAATCGGCCAGTTTTCTCTGCCTGCAGTCCGCATGCCGTGGGACCCCTTGGGTTCTAACCTGTTGCCTAGATTTATGCAGCGGACTGCCTTTCTCCCAAAGTGATAAACCGG…AGGTTGGTTTCACT; site = the 11-nt donor
Outline: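 In Escherichia coli, a pool of donor and donor-binding-loop pairs, each with a 12-nt UMI, was tested for the IS621 bridge recombinase. Plating was on IPTG (0.07 mM) plus kanamycin, or without selection, in two replicates. Recombinant UMIs were amplified by PCR across the donor–target junction and sequenced, and counts were reported as log10(CPM+1) after averaging and control-derived scaling.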
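Further: IS621 bridge recombinase in Escherichia coli cells against a fixed T5 target plasmid.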

Sequence | recombinant UMI read abundance (log10)
GTATTATCATGGACCGGTTTTCCCGGTAATCCGTATTTGTG (site GTATTATCTCA) | 2.22
GTATTCACATGGACCGGTTTTCCCGGTAATCCGTATTTGTA (site GTATACACTTA) | 0.154
GTATTCACATGGACCGGTTTTCCCGGTAATCCGTATTTGTA (site GTATCCACTTA) | 0.507
GTATTCACATGGACCGGTTTTCCCGGTAATCCGTATTTGTA (site GTATGCACTTA) | 0.0233
GTATTCACATGGACCGGTTTTCCCGGTAATCCGTATTTGTA (site GTATTCACTTA) | 2.35
GTATTGACATGGACCGGTTTTCCCGGTAATCCGTATTTGTG (site GTATTGACTCA) | 1.4
GTCAAAGCATGGACCGGTTTTCCCGGTAATCCGTATTTGGT (site GTCAAAGCTAC) | 2.11
GTCAACACATGGACCGGTTTTCCCGGTAATCCGTATTTGTC (site GTCAACACTGA) | 2.35
GTCAGATCATGGACCGGTTTTCCCGGTAATCCGTATTTGCG (site GTCAGATCTCG) | 1.77
GTCAGTGCATGGACCGGTTTTCCCGGTAATCCGTATTTGCA (site GTCAGTGCTTG) | 2.49
GTCCAGGCATGGACCGGTTTTCCCGGTAATCCGTATTTGTA (site GTCCAGGCTTA) | 0.928
GTCCTATCATGGACCGGTTTTCCCGGTAATCCGTATTTGGA (site GTCCTATCTTC) | 1.41
GTCCTTACATGGACCGGTTTTCCCGGTAATCCGTATTTGAG (site GTCCTTACTCT) | 0.376
GTCGAACCATGGACCGGTTTTCCCGGTAATCCGTATTTGAC (site GTCGAACCTGT) | 0
GTCGAATCATGGACCGGTTTTCCCGGTAATCCGTATTTGGG (site GTCGAATCTCC) | 0.914
GTCGAGTCATGGACCGGTTTTCCCGGTAATCCGTATTTGTT (site GTCGAGTCTAA) | 2.79
GTCGGGACATGGACCGGTTTTCCCGGTAATCCGTATTTGGG (site GTCGGGACTCC) | 0.0114
GTCGGGGCATGGACCGGTTTTCCCGGTAATCCGTATTTGGC (site GTCGGGGCTGC) | 1.22
GTCGTAGCATGGACCGGTTTTCCCGGTAATCCGTATTTGCC (site GTCGTAGCTGG) | 2.67
GTCGTTGCATGGACCGGTTTTCCCGGTAATCCGTATTTGAA (site GTCGTTGCTTT) | 2.14
GTCTATACATGGACCGGTTTTCCCGGTAATCCGTATTTGAC (site ATCTATACTGT) | 0.841
GTCTATACATGGACCGGTTTTCCCGGTAATCCGTATTTGAC (site CTCTATACTGT) | 0.0424
GTCTATACATGGACCGGTTTTCCCGGTAATCCGTATTTGAC (site GTCTATACTGT) | 2.33
GTCTATACATGGACCGGTTTTCCCGGTAATCCGTATTTGAC (site TTCTATACTGT) | 1.01
GTCTATTCATGGACCGGTTTTCCCGGTAATCCGTATTTGAC (site GTCTATTCTGT) | 2.09

Sequence | recombinant UMI read abundance (log10)
GTCTGATCATGGACCGGTTTTCCCGGTAATCCGTATTTGCG (site GTCTGATCTCG) | 2.17
GTCTGATCATGGACCGGTTTTCCCGGTAATCCGTATTTGGG (site GTCTGATCTCC) | 0.011
GTCTGCACATGGACCGGTTTTCCCGGTAATCCGTATTTGTA (site GTATGCACTTA) | 0.0171
GTCTGCACATGGACCGGTTTTCCCGGTAATCCGTATTTGTA (site GTCTGCACTTA) | 1.44
GTCTGCACATGGACCGGTTTTCCCGGTAATCCGTATTTGTA (site GTGTGCACTTA) | 0.0326
GTCTGCACATGGACCGGTTTTCCCGGTAATCCGTATTTGTA (site GTTTGCACTTA) | 0.0829
GTGAGAACATGGACCGGTTTTCCCGGTAATCCGTATTTGGC (site GTAAGAACTGC) | 2.2
GTGAGAACATGGACCGGTTTTCCCGGTAATCCGTATTTGGC (site GTCAGAACTGC) | 0
GTGAGAACATGGACCGGTTTTCCCGGTAATCCGTATTTGGC (site GTGAGAACTGC) | 1.49
GTGAGAACATGGACCGGTTTTCCCGGTAATCCGTATTTGGC (site GTTAGAACTGC) | 0
GTGAGGTCATGGACCGGTTTTCCCGGTAATCCGTATTTGCT (site GTGAGGTCTAG) | 3.11
GTGATTCCATGGACCGGTTTTCCCGGTAATCCGTATTTGCA (site GTGATTCCTTG) | 1.09
GTGATTCCATGGACCGGTTTTCCCGGTAATCCGTATTTGGA (site GTGATTCCTTC) | 0.421
GTGATTCCATGGACCGGTTTTCCCGGTAATCCGTATTTGGT (site GTGATTCCTAC) | 0.318
GTGCCTACATGGACCGGTTTTCCCGGTAATCCGTATTTGGC (site GTGCCTACTGC) | 1.12
GTGCTGACATGGACCGGTTTTCCCGGTAATCCGTATTTGTT (site GTGCTGACTAA) | 0.314
GTGCTTACATGGACCGGTTTTCCCGGTAATCCGTATTTGTA (site GTGCTTACTTA) | 0.318
GTGGAGGCATGGACCGGTTTTCCCGGTAATCCGTATTTGCG (site GTGGAGGCTCA) | 1.56
GTGGAGGCATGGACCGGTTTTCCCGGTAATCCGTATTTGCG (site GTGGAGGCTCC) | 0.392
GTGGAGGCATGGACCGGTTTTCCCGGTAATCCGTATTTGCG (site GTGGAGGCTCG) | 2.28
GTGGAGGCATGGACCGGTTTTCCCGGTAATCCGTATTTGCG (site GTGGAGGCTCT) | 0.716
GTGGAGGCATGGACCGGTTTTCCCGGTAATCCGTATTTGTC (site GTGGAGGCTAA) | 0.657
GTGGAGGCATGGACCGGTTTTCCCGGTAATCCGTATTTGTC (site GTGGAGGCTCA) | 0.549
GTGGAGGCATGGACCGGTTTTCCCGGTAATCCGTATTTGTC (site GTGGAGGCTGA) | 2.67
GTGGAGGCATGGACCGGTTTTCCCGGTAATCCGTATTTGTC (site GTGGAGGCTTA) | 1.64

Sequence | recombinant UMI read abundance (log10)
GTGGAGGCATGGACCGGTTTTCCCGGTAATCCGTATTTGTG (site ATGGAGGCTCA) | 1.53
GTGGAGGCATGGACCGGTTTTCCCGGTAATCCGTATTTGTG (site CTGGAGGCTCA) | 0.921
GTGGAGGCATGGACCGGTTTTCCCGGTAATCCGTATTTGTG (site GAGGAGGCTCA) | 0.602
GTGGAGGCATGGACCGGTTTTCCCGGTAATCCGTATTTGTG (site GCGGAGGCTCA) | 0.6
GTGGAGGCATGGACCGGTTTTCCCGGTAATCCGTATTTGTG (site GGGGAGGCTCA) | 0
GTGGAGGCATGGACCGGTTTTCCCGGTAATCCGTATTTGTG (site GTAGAGGCTCA) | 1.94
GTGGAGGCATGGACCGGTTTTCCCGGTAATCCGTATTTGTG (site GTCGAGGCTCA) | 0.00904
GTGGAGGCATGGACCGGTTTTCCCGGTAATCCGTATTTGTG (site GTGAAGGCTCA) | 1.1
GTGGAGGCATGGACCGGTTTTCCCGGTAATCCGTATTTGTG (site GTGCAGGCTCA) | 0.25
GTGGAGGCATGGACCGGTTTTCCCGGTAATCCGTATTTGTG (site GTGGAAGCTCA) | 2.56
GTGGAGGCATGGACCGGTTTTCCCGGTAATCCGTATTTGTG (site GTGGACGCTCA) | 1.02
GTGGAGGCATGGACCGGTTTTCCCGGTAATCCGTATTTGTG (site GTGGAGACTCA) | 0.959
GTGGAGGCATGGACCGGTTTTCCCGGTAATCCGTATTTGTG (site GTGGAGCCTCA) | 0.0109
GTGGAGGCATGGACCGGTTTTCCCGGTAATCCGTATTTGTG (site GTGGAGGCTAA) | 0.431
GTGGAGGCATGGACCGGTTTTCCCGGTAATCCGTATTTGTG (site GTGGAGGCTCA) | 1.41
GTGGAGGCATGGACCGGTTTTCCCGGTAATCCGTATTTGTG (site GTGGAGGCTCC) | 0.284
GTGGAGGCATGGACCGGTTTTCCCGGTAATCCGTATTTGTG (site GTGGAGGCTCG) | 1.53
GTGGAGGCATGGACCGGTTTTCCCGGTAATCCGTATTTGTG (site GTGGAGGCTCT) | 1.15
GTGGAGGCATGGACCGGTTTTCCCGGTAATCCGTATTTGTG (site GTGGAGGCTGA) | 0.461
GTGGAGGCATGGACCGGTTTTCCCGGTAATCCGTATTTGTG (site GTGGAGGCTTA) | 1.42
GTGGAGGCATGGACCGGTTTTCCCGGTAATCCGTATTTGTG (site GTGGAGTCTCA) | 1.82
GTGGAGGCATGGACCGGTTTTCCCGGTAATCCGTATTTGTG (site GTGGATGCTCA) | 1.27
GTGGAGGCATGGACCGGTTTTCCCGGTAATCCGTATTTGTG (site GTGGCGGCTCA) | 0.00613
GTGGAGGCATGGACCGGTTTTCCCGGTAATCCGTATTTGTG (site GTGGGGGCTCA) | 0.918
GTGGAGGCATGGACCGGTTTTCCCGGTAATCCGTATTTGTG (site GTGGTGGCTCA) | 0

Reference: the supplement of paper PMC11208160
